Results taken from PubChem BioAssay AID1745844 (Carcinogenic Potency Database (CPDB), 2022).
Calls of active or inactive are those of the source. The rule behind the calls is not given here.

Test system: rodent lifetime carcinogenesis bioassay, tumor incidence TD50
Experiment: chronic cancer bioassays in animals – CPDB, compiled studies (AID 1745844)

## CCCCCNN
mouse, strain Swiss albino, females, in drinking water, site: blood vessels, lesion: angioma, dosed 94 weeks, study length 94 weeks
  TD50: 71.9 mg/kg/day
mouse, strain Swiss albino, females, in drinking water, site: blood vessels, lesion: angiosarcoma, dosed 94 weeks, study length 94 weeks
  TD50: 82.2 mg/kg/day
mouse, strain Swiss albino, females, in drinking water, site: blood vessels, lesion: several types, types named in the paper, dosed 94 weeks, study length 94 weeks
  TD50: 35.5 mg/kg/day
mouse, strain Swiss albino, females, in drinking water, site: liver, lesion: several types, types named in the paper, dosed 94 weeks, study length 94 weeks
  TD50: 223 mg/kg/day
mouse, strain Swiss albino, females, in drinking water, site: lung, lesion: adenocarcinoma, dosed 94 weeks, study length 94 weeks
  TD50: 18.7 mg/kg/day
mouse, strain Swiss albino, females, in drinking water, site: lung, lesion: adenoma, dosed 94 weeks, study length 94 weeks
  TD50: 7.95 mg/kg/day
mouse, strain Swiss albino, females, in drinking water, site: lung, lesion: several types, types named in the paper, dosed 94 weeks, study length 94 weeks
  TD50: 5.87 mg/kg/day
mouse, strain Swiss albino, males, in drinking water, site: blood vessels, lesion: several types, types named in the paper, dosed 94 weeks, study length 94 weeks
  TD50: 65.6 mg/kg/day
mouse, strain Swiss albino, males, in drinking water, site: liver, lesion: several types, types named in the paper, dosed 94 weeks, study length 94 weeks
  TD50: 271 mg/kg/day
mouse, strain Swiss albino, males, in drinking water, site: lung, lesion: adenoma, dosed 94 weeks, study length 94 weeks
  TD50: 30 mg/kg/day
mouse, strain Swiss albino, males, in drinking water, site: lung, lesion: several types, types named in the paper, dosed 94 weeks, study length 94 weeks
  TD50: 46.9 mg/kg/day

## CCCCCCCC/C=C/CCCCCCCC(=O)OCCOCC(OCCO)C1OCC(OCCO)C1OCCO (stereo not given)
mouse, strain B6C3F1, females, in feed, site: any site (literature study), lesion: several types, types named in the paper, dosed 103 weeks, study length 104 weeks
  TD50: 42900 mg/kg/day (inactive)
mouse, strain B6C3F1, females, in feed, site: lung, lesion: alveolar/bronchiolar adenoma + alveolar/bronchiolar carcinoma, dosed 103 weeks, study length 104 weeks
  TD50: 332000 mg/kg/day
mouse, strain B6C3F1, males, in feed, site: any site (literature study), lesion: several types, types named in the paper, dosed 103 weeks, study length 104 weeks
  carcinogen call: negative (inactive)
rat, strain Fischer 344, females, in feed, site: liver, lesion: hepatocellular adenoma + hepatocellular carcinoma + neoplastic nodule, dosed 103 weeks, study length 104 weeks
  TD50: 15800 mg/kg/day
rat, strain Fischer 344, females, in feed, site: liver, lesion: hepatocellular adenoma, dosed 103 weeks, study length 104 weeks
  TD50: 15800 mg/kg/day (inactive)
rat, strain Fischer 344, males, in feed, site: adrenal medulla, lesion: pheochromocytoma benign, bilateral + pheochromocytoma, malignant + pheochromocytoma, benign, dosed 99 weeks, study length 99 weeks
  TD50: 2580 mg/kg/day
rat, strain Fischer 344, males, in feed, site: any site (literature study), lesion: several types, types named in the paper, dosed 99 weeks, study length 99 weeks
  TD50: 3290 mg/kg/day
rat, strain Fischer 344, males, in feed, site: liver, lesion: hepatocellular adenoma + hepatocellular carcinoma + neoplastic nodule, dosed 99 weeks, study length 99 weeks
  TD50: 217000 mg/kg/day

## CC=NN(C)C=O
mouse, strain Swiss albino, females, by gavage, site: clitoral gland, lesion: several types, types named in the paper, dosed 52 weeks, study length 109 weeks
  TD50: 38.2 mg/kg/day
mouse, strain Swiss albino, females, by gavage, site: clitoral gland, lesion: squamous-cell carcinoma, dosed 52 weeks, study length 109 weeks
  TD50: 46.4 mg/kg/day
mouse, strain Swiss albino, females, by gavage, site: forestomach, lesion: several types, types named in the paper, dosed 52 weeks, study length 109 weeks
  TD50: 28 mg/kg/day
mouse, strain Swiss albino, females, by gavage, site: forestomach, lesion: squamous-cell papilloma, dosed 52 weeks, study length 109 weeks
  TD50: 32.4 mg/kg/day
mouse, strain Swiss albino, females, by gavage, site: liver, lesion: hepatoma, dosed 52 weeks, study length 109 weeks
  TD50: 28 mg/kg/day (inactive)
mouse, strain Swiss albino, females, by gavage, site: lung, lesion: adenocarcinoma, dosed 52 weeks, study length 109 weeks
  TD50: 19.6 mg/kg/day
mouse, strain Swiss albino, females, by gavage, site: lung, lesion: adenoma, dosed 52 weeks, study length 109 weeks
  TD50: 7.37 mg/kg/day
mouse, strain Swiss albino, females, by gavage, site: lung, lesion: several types, types named in the paper, dosed 52 weeks, study length 109 weeks
  TD50: 5.66 mg/kg/day
mouse, strain Swiss albino, males, by gavage, site: liver, lesion: hepatoma, dosed 52 weeks, study length 79 weeks
  TD50: 11 mg/kg/day (inactive)
mouse, strain Swiss albino, males, by gavage, site: lung, lesion: adenoma, dosed 52 weeks, study length 79 weeks
  TD50: 13.7 mg/kg/day
mouse, strain Swiss albino, males, by gavage, site: lung, lesion: several types, types named in the paper, dosed 52 weeks, study length 79 weeks
  TD50: 14.4 mg/kg/day
mouse, strain Swiss albino, males, by gavage, site: preputial gland, lesion: fibrosarcoma, dosed 52 weeks, study length 79 weeks
  TD50: 21.3 mg/kg/day
mouse, strain Swiss albino, males, by gavage, site: preputial gland, lesion: several types, types named in the paper, dosed 52 weeks, study length 79 weeks
  TD50: 1.61 mg/kg/day
mouse, strain Swiss albino, males, by gavage, site: preputial gland, lesion: squamous-cell carcinoma, dosed 52 weeks, study length 79 weeks
  TD50: 2.17 mg/kg/day

## CC(C)(C)c1cc([N+](=O)[O-])cc([N+](=O)[O-])c1OS(C)(=O)=O
rat, strain Sprague-Dawley, females, in feed, site: any site (literature study), lesion: several types, types named in the paper, dosed 52 weeks, study length 52 weeks
  TD50: 2.66 mg/kg/day

## CCCCOC(=O)c1ccc(O)cc1
mouse, strain ICR/Jcl, females, in feed, site: any site (literature study), lesion: several types, types named in the paper, dosed 102 weeks, study length 106 weeks
  TD50: 2720 mg/kg/day (inactive)
mouse, strain ICR/Jcl, females, in feed, site: liver, lesion: one or several types, types not named, dosed 102 weeks, study length 106 weeks
  carcinogen call: negative (inactive)
mouse, strain ICR/Jcl, females, in feed, site: lung, lesion: one or several types, types not named, dosed 102 weeks, study length 106 weeks
  TD50: 5100 mg/kg/day (inactive)
mouse, strain ICR/Jcl, males, in feed, site: any site (literature study), lesion: several types, types named in the paper, dosed 102 weeks, study length 106 weeks
  TD50: 5240 mg/kg/day (inactive)
mouse, strain ICR/Jcl, males, in feed, site: liver, lesion: one or several types, types not named, dosed 102 weeks, study length 106 weeks
  TD50: 27400 mg/kg/day (inactive)
mouse, strain ICR/Jcl, males, in feed, site: lung, lesion: one or several types, types not named, dosed 102 weeks, study length 106 weeks
  TD50: 119000 mg/kg/day (inactive)
